US8546451B2 (priority 2005, dated 2013)
Marks after values point to notes of the source that are not given here.

Tested on: testosterone, prostate specific antigen (PSA), prostate volume and weight
Test: 39-week oral pharmacology and toxicology study in male cynomolgus monkey (13-week interim)
Conditions: for reduction of prostate volume: six weeks; for reduction of mean prostate weights: thirteen weeks
[1] = Day 7, 10 mg/kg/day oral, Quantifiable concentrations only
[2] = Day 7, 100 mg/kg/day oral, Estimated final concentrations
[3] = Day 7, 100 mg/kg/day oral, Quantifiable concentrations only
[4] = Day 14, 1 mg/kg/day oral, Estimated final concentrations
[5] = Day 14, 1 mg/kg/day oral, Quantifiable concentrations only
[6] = Day 14, 10 mg/kg/day oral, Estimated final concentrations
[7] = Day 14, 10 mg/kg/day oral, Quantifiable concentrations only
[8] = Day 14, 100 mg/kg/day oral, Estimated final concentrations
[9] = Day 14, 100 mg/kg/day oral, Quantifiable concentrations only
[10] = Day 28, 1 mg/kg/day oral, Estimated final concentrations
[11] = Day 28, 1 mg/kg/day oral, Quantifiable concentrations only
[12] = Day 28, 10 mg/kg/day oral, Estimated final concentrations
[13] = Day 28, 10 mg/kg/day oral, Quantifiable concentrations only
[14] = Day 28, 100 mg/kg/day oral, Estimated final concentrations
[15] = Day 28, 100 mg/kg/day oral, Quantifiable concentrations only
[16] = Day 64, 1 mg/kg/day oral, Estimated final concentrations
[17] = Day 64, 1 mg/kg/day oral, Quantifiable concentrations only
[18] = Day 64, 10 mg/kg/day oral, Estimated final concentrations
[19] = Day 64, 10 mg/kg/day oral, Quantifiable concentrations only
[20] = Day 64, 100 mg/kg/day oral, Estimated final concentrations
[21] = Day 64, 100 mg/kg/day oral, Quantifiable concentrations only
[22] = Day 90, 1 mg/kg/day oral, Estimated final concentrations
[23] = Day 90, 1 mg/kg/day oral, Quantifiable concentrations only
[24] = Day 90, 10 mg/kg/day oral, Estimated final concentrations
[25] = Day 90, 10 mg/kg/day oral, Quantifiable concentrations only
[26] = Day 90, 100 mg/kg/day oral, Estimated final concentrations
[27] = Day 90, 100 mg/kg/day oral, Quantifiable concentrations only

O=C(c1ccc(O)c(F)c1)N(c1ccc(O)cc1)c1ccc(F)cc1 [Compound IV, 3-fluoro-N-(4-fluorophenyl)-4-hydroxy-N-(4-hydroxyphenyl)benzamide]
Mean serum testosterone level [1]: 7.7 ng/mL
Percentage change of mean testosterone levels compared to baseline [1]: 57%
suppression of serum testosterone relative to the baseline value (Day 7, 100 mg/kg/day oral): 51%
Mean serum testosterone level [2]: 2.2* ng/mL
Percentage change of mean serum testosterone levels compared to baseline [2]: −51%
Mean serum testosterone level [3]: 2.2 ng/mL
Percentage change of mean testosterone levels compared to baseline [3]: −51%
Mean serum testosterone level [4]: 3.8 ng/mL
Percentage change of mean serum testosterone levels compared to baseline [4]: −48%
Mean serum testosterone level [5]: 3.8 ng/mL
Percentage change of mean testosterone levels compared to baseline [5]: −48%
Mean serum testosterone level [6]: 7.1 ng/mL
Percentage change of mean serum testosterone levels compared to baseline [6]: 45%
Mean serum testosterone level [7]: 7.1 ng/mL
Percentage change of mean testosterone levels compared to baseline [7]: 45%
suppression of serum testosterone relative to the baseline value (Day 14, 100 mg/kg/day oral): 42%
Mean serum testosterone level [8]: 2.6 ng/mL
Percentage change of mean serum testosterone levels compared to baseline [8]: −42%
Mean serum testosterone level [9]: 2.6 ng/mL
Percentage change of mean testosterone levels compared to baseline [9]: −42%
Mean serum testosterone level [10]: 4.7 ng/mL
Percentage change of mean serum testosterone levels compared to baseline [10]: −35%
Mean serum testosterone level [11]: 4.7 ng/mL
Percentage change of mean testosterone levels compared to baseline [11]: −35%
Mean serum testosterone level [12]: 9.4 ng/mL
Percentage change of mean serum testosterone levels compared to baseline [12]: 92%
Mean serum testosterone level [13]: 9.4 ng/mL
Percentage change of mean testosterone levels compared to baseline [13]: 92%
suppression of serum testosterone relative to the baseline value (Day 28, 100 mg/kg/day oral): 79%
Mean serum testosterone level [14]: 0.9* ng/mL
Percentage change of mean serum testosterone levels compared to baseline [14]: −79%
Mean serum testosterone level [15]: 0.9 ng/mL
Percentage change of mean testosterone levels compared to baseline [15]: −79%
Mean serum testosterone level [16]: 4.3 ng/mL
Percentage change of mean serum testosterone levels compared to baseline [16]: −41%
Mean serum testosterone level [17]: 4.3 ng/mL
Percentage change of mean testosterone levels compared to baseline [17]: −41%
Mean serum testosterone level [18]: 5.4 ng/mL
Percentage change of mean serum testosterone levels compared to baseline [18]: 11%
Mean serum testosterone level [19]: 5.4 ng/mL
Percentage change of mean testosterone levels compared to baseline [19]: 11%
suppression of serum testosterone relative to the baseline value (Day 64, 100 mg/kg/day oral): 92%
Mean serum testosterone level [20]: 0.3* ng/mL
Percentage change of mean serum testosterone levels compared to baseline [20]: −92%
Mean serum testosterone level [21]: 0.3 ng/mL
Percentage change of mean testosterone levels compared to baseline [21]: −92%
Mean serum testosterone level [22]: 4.2 ng/mL
Percentage change of mean serum testosterone levels compared to baseline [22]: −42%
Mean serum testosterone level [23]: 4.2 ng/mL
Percentage change of mean testosterone levels compared to baseline [23]: −42%
Mean serum testosterone level [24]: 4.6 ng/mL
Percentage change of mean serum testosterone levels compared to baseline [24]: −5.5%
Mean serum testosterone level [25]: 4.6 ng/mL
Percentage change of mean testosterone levels compared to baseline [25]: −5.5%
Mean serum testosterone level [26]: 0.2* ng/mL
Percentage change of mean serum testosterone levels compared to baseline [26]: −96%
suppression of serum testosterone relative to the baseline value [26]: 96%
Mean serum testosterone level [27]: 0.2 ng/mL
Percentage change of mean testosterone levels compared to baseline [27]: −95%
monkeys with testosterone below the limit of quantification (after 90 days, 100 mg/kg/day oral, LLOQ 0.246 ng/mL): 6 of 10
testosterone flare (any dose up to 100 mg/kg/day): not observed
effects on platelet aggregation, prothrombin time (PT) or activated partial thromboplastin time (APTT) (cynomolgus monkey, in vivo): No apparent effects
reduction of prostate volume (10 mg/kg): 25%
reduction of prostate volume (100 mg/kg): 45%
reduction of mean prostate weights (10 mg/kg/day): 24%
reduction of mean prostate weights (100 mg/kg/day): 21%
